The record followed here is patent publication US7084141B2, “Inhibitors of macrophase migration inhibitory factor and methods for identifying the same” (Avanir Pharmaceuticals, priority 2001, dated 2006).

The assay relates to serum IL-1β. The assay is described as follows: Serum IL-1β after LPS challenge in mice (ELISA). The settings on record: 20 mg/kg compound, LPS 5 mg/kg, four hours. It counts as in vivo, mouse. As to the method:
Ten 10-week-old (20±2 gram) female BALB/c mice (Charles River Laboratories, Kingston, N.Y.) were housed in a group of 5 per cage with free access to food and water and were acclimatized for at least one week prior to experimentation. On the day of experiment, mice were weighed and randomly distributed into group of 10 animals of equal mean body weight. Mice were injected i.p. with 200 μL of formulated compound 7e or buffer alone immediately before the i.p. injection of LPS (Escherichia coli 0111:B4, 10 mg/kg or 5 mg/kg body weight) and β-D-galactosamine (50 mg/kg body weight). […] Mouse serum Il-1β and TNF-α were measured by ELISA using a “mouse IL 1β immunoassay or mouse TNF-α immunoassay” kits (R&D System Minneapolis, Minn.) following manufacturer's direction. Serum MIF concentrations in mouse serum were quantified by a sandwich ELISA (ChemiKine MIF Kit, Chemicon, San Diego, Calif.). Samples were analyzed in duplicate, and results were averaged.
An initial control experiment was conducted to determine the base line levels of endogenous MIF in the murine model system (female Balb/c mice), and further to determine the rate and extent of increase in endogenous MIF following treatment with LPS (10 mg/kg). […] The level of MIF in serum was measured by HPLC as described above at 0, 2, 5 and 6 hours following LPS/galactosamine treatment. […]
Background: An ELISA detects its analyte on a solid surface through an enzyme-linked reagent.

As for `Cn1c(=O)c([N+](=O)[O-])c(N2CCN(C(=O)c3ccco3)CC2)c2ccccc21` [compound 7e], the “serum IL-1β level” value is listed as “reductions”.
